Experiment [1] deals with Mus musculus. The experiment in a line: Reduction in hypoxic stress in ip dosed CF-1 mouse. The following applies: CF-1, ip. It counts as functional.
Experiment [2] concerns Mus musculus. The experiment in a line: Anticonvulsant activity in ip dosed CF-1 mouse assessed as reduction of pentylenetetrazole-induced response. The format is functional. The following applies: CF-1, ip.
Experiment [3] has as its system Mus musculus. Nature of the experiment: Inhibition of nicotine-induced response in ip dosed CF-1 mouse. The format is functional. The note with it: CF-1, ip.
Experiment [4] relates to Mus musculus. The experiment in a line: Anticonvulsant activity in ip dosed CF-1 mouse assessed as reduction of strychnine-induced response. The format is functional. The note with it: CF-1, ip.
Experiment [5] concerns Mus musculus. Nature of the experiment: Anticonvulsant activity in CF-1 mouse assessed as reduction of pentylenetetrazole-induced response at 100 mg/kg, ip. It counts as functional, organism-based. Also noted: dose 100 mg/kg.
The test system of experiment [6] is Mus musculus. Nature of the experiment: Anticonvulsant activity in CF-1 mouse assessed as reduction of strychnine-induced response at 100 mg/kg, ip. The format is functional, organism-based. The arrangement: dose 100 mg/kg.
Experiment [7] deals with Mus musculus. Nature of the experiment: Inhibition of nicotine-induced response in CF-1 mouse at 100 mg/kg, ip. It counts as functional, organism-based. The arrangement: dose 100 mg/kg.
Experiment [8] relates to Mus musculus. The experiment in a line: Reduction in hypoxic stress in CF-1 mouse at 100 mg/kg, ip. The format is functional, organism-based. The arrangement: dose 100 mg/kg.

The source made the active and inactive calls. The rule behind the calls is not given here.

With `CNC1=Nc2ccc(Cl)cc2C(c2ccccc2)=[N+]([O-])C1` [CHLORDIAZEPOXIDE], the median effective dose (ED50) in experiment [1] is 10.5 mg/kg; in experiment [2] it was 2.6 mg/kg; in experiment [3] it was 1 mg/kg; in experiment [4] it was 13 mg/kg.
For `CN(C)Cc1nnc2n1-c1ccc(Cl)cc1N(c1ccccc1)C(=O)C2`, the 50% effective dose (ED50) in experiment [2] worked out at 25 mg/kg; in experiment [3], 89 mg/kg.
As to `Cc1nnc2n1-c1ccc(Cl)cc1N(c1ccccc1)C(=O)C2`, the ED50 was 60 mg/kg in experiment [1], 7 mg/kg in experiment [2], 5 mg/kg in experiment [3] and 28 mg/kg in experiment [4].
In the case of `O=C1Cc2nnc(CCl)n2-c2ccc(Cl)cc2N1c1ccccc1`, the outcome in experiment [5], in experiment [6] and in experiment [8] was inactive. Also, the inhibition entry in experiment [7] is “inactive”.

As a reminder, the ED50 is the dose at which the effect has come halfway, by size or by number of responders.

(Values after ChEMBL document CHEMBL3272002, “Central nervous system depressants. 13. s-Triazolo-1,5-benzodiazepin-5-ones” (1976).)
